In series [1] the target is Proto-oncogene tyrosine-protein kinase Src (Homo sapiens) (UniProt P12931). The experiment in a line: Inhibition of recombinant human C-terminal His-tagged full length SRC expressed in baculovirus expression system using Tyr 02 as substrate at 0.1 uM incubated for 60 mins by Z'-Lyte assay relative to control.
The target of series [2] is Non-receptor tyrosine-protein kinase TYK2 (Homo sapiens) (UniProt P29597). The experiment in a line: Inhibition of recombinant human N-terminal GST-tagged TYK2 (833 to 1187 residues) expressed in baculovirus expression system using Tyr 03 as substrate at 0.1 uM incubated for 60 mins by Z'-Lyte assay relative to control.
For series [3], the target named is Dual specificity mitogen-activated protein kinase kinase 1 (Homo sapiens) (UniProt Q02750). The series can be described thus: Inhibition of recombinant human His-tagged full length MEK1 expressed in baculovirus expression system using Ser/Thr 03 as substrate at 0.1 uM incubated for 60 mins by Z'-lyte assay relative to control.
Series [4] has as its target Ephrin type-A receptor 4 (Homo sapiens) (UniProt P54764). The experiment in a line: Inhibition of recombinant human GST-tagged EPHA4 (616 to 887 residues) expressed in baculovirus expression system using Tyr 02 as substrate at 0.1 uM incubated for 60 mins by Z'-Lyte assay relative to control.
The target of a further series is LRRK2 (Homo sapiens, UniProt Q5S007). The experiment in a line: Inhibition of recombinant human GST-tagged LRRK2 (970 to 2527 residues) expressed in baculovirus expression system using LRRKtide as substrate at 0.1 uM incubated for 60 mins by Adapta assay relative to control. Conditions: probe LRRKtide.
LRRK2, sequence (Q5S007 whole entry, the tested form may be a part): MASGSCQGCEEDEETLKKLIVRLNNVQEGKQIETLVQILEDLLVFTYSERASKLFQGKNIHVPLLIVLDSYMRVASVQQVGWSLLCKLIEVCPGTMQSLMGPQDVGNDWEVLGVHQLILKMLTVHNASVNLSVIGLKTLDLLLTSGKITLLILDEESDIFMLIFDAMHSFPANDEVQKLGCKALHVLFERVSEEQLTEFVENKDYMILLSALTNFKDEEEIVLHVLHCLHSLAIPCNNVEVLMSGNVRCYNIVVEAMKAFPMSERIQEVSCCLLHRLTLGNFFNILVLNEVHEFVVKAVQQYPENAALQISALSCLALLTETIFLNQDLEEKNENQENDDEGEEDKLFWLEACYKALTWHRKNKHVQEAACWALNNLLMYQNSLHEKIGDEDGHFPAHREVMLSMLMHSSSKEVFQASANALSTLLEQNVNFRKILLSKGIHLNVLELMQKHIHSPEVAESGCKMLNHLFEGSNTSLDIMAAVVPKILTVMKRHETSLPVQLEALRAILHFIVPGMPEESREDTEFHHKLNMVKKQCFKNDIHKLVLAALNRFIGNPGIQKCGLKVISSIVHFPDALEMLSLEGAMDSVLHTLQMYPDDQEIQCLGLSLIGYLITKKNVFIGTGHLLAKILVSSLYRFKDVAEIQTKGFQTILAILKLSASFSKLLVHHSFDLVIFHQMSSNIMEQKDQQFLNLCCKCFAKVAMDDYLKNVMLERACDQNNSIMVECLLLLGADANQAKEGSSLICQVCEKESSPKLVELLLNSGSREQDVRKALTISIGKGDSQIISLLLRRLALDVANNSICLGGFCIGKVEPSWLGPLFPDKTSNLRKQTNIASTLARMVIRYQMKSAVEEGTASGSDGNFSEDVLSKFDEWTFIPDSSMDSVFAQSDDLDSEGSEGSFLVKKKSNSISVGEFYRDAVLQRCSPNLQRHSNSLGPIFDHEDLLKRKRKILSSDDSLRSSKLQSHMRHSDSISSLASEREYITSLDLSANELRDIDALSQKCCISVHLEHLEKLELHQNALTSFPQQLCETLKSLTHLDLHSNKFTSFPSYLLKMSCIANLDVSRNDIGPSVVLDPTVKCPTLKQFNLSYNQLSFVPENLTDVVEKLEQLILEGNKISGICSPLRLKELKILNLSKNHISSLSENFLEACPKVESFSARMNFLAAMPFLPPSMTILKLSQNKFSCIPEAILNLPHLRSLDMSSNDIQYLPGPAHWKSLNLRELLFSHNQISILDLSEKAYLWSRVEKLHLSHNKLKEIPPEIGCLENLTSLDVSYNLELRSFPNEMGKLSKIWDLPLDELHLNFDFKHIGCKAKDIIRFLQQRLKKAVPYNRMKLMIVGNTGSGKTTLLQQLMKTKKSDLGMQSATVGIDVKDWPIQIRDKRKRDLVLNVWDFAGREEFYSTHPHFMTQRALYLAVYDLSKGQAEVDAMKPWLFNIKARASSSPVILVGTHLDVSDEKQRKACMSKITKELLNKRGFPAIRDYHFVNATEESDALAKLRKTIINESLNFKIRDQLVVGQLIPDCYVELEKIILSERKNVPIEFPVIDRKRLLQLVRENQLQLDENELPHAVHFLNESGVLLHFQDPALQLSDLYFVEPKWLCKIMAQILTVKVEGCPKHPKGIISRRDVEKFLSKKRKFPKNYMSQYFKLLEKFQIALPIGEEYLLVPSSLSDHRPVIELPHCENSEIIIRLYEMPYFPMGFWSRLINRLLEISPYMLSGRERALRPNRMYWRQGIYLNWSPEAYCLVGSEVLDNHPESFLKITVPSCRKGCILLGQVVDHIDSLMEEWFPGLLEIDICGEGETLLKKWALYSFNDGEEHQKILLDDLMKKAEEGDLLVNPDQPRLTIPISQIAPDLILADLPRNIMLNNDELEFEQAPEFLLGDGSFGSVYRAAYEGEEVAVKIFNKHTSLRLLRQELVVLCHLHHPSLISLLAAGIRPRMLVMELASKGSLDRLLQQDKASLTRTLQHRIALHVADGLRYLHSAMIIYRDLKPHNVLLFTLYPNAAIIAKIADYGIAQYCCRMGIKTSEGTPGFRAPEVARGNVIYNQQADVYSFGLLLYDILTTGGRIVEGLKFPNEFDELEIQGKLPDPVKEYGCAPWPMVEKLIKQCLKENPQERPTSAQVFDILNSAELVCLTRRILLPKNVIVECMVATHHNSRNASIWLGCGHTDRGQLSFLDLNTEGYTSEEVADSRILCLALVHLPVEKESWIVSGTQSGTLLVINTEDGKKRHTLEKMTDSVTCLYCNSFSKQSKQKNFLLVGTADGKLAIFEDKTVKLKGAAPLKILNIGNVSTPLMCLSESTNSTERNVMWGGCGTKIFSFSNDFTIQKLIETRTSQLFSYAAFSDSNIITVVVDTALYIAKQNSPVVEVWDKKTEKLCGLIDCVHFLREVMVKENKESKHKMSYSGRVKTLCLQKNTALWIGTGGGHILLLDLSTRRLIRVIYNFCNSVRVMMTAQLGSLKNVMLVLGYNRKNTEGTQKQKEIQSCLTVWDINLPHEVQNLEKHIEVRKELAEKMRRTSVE
In series [5] the target is CDK8/Cyclin C (Homo sapiens) (UniProt P49336+P24863). The experiment in a line: Inhibition of tracer 236 binding to recombinant human His-tagged full length CDK8/Cyclin C expressed in baculovirus expression system at 0.1 uM incubated for 60 mins by Lanthascreen assay relative to control.
The target of series [6] is T1, G protein-coupled receptor kinase 3 (Homo sapiens) (UniProt P35626).
T1 sequence (whole entry): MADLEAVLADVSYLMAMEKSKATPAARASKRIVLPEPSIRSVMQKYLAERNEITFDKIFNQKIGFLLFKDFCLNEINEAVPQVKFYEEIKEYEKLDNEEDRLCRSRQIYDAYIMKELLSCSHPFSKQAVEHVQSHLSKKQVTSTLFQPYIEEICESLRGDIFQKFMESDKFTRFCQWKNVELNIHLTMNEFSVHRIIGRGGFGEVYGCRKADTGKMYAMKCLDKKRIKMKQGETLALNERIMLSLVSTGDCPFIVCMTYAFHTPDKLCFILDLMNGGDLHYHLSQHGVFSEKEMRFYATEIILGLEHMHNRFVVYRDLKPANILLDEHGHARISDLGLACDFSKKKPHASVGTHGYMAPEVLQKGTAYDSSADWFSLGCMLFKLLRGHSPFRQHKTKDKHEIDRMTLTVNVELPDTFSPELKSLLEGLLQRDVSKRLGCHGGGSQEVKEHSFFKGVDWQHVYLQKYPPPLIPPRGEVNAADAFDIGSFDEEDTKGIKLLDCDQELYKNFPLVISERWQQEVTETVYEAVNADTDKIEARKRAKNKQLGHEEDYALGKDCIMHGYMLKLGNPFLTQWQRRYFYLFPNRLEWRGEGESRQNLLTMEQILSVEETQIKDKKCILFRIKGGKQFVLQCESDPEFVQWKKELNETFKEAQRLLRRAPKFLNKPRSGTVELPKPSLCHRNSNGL
The experiment in a line: Inhibition of recombinant human GST-tagged full length GRK3 expressed in baculovirus expression system using Ser/Thr 16 as substrate at 0.1 uM incubated for 60 mins by Z'-Lyte assay relative to control.

Series [7] concerns the target Mitogen-activated protein kinase 9 (Homo sapiens) (UniProt P45984). The experiment in a line: Inhibition of recombinant human His-tagged full length JNK2 expressed in baculovirus expression system using Ser/Thr 04 as substrate at 0.1 uM incubated for 60 mins by Z'-lyte assay relative to control.
In series [8] the target is T2, Beta-adrenergic receptor kinase 1 (Homo sapiens) (UniProt P25098).
T2 sequence (whole entry): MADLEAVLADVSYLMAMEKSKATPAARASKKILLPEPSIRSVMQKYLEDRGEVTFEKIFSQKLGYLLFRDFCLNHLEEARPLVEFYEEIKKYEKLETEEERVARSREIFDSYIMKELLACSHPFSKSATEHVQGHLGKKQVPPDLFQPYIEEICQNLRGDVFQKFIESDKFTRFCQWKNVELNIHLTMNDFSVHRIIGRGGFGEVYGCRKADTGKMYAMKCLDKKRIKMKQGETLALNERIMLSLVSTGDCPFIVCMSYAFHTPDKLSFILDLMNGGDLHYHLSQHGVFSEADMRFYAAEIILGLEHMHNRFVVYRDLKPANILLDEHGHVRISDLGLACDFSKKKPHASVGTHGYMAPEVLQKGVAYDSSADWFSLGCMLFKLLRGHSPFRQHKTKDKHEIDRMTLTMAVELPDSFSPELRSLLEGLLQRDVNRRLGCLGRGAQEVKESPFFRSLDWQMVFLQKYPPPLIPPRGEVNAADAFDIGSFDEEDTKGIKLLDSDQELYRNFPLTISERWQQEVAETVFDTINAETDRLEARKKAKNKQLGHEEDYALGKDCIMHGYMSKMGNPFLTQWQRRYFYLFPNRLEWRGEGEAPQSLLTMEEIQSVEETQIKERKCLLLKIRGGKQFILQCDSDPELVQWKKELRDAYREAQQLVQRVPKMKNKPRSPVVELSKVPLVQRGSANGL
The experiment in a line: Inhibition of recombinant human His-tagged full length GRK2 expressed in baculovirus expression system using Ser/Thr 16 as substrate at 0.1 uM incubated for 60 mins by Z'-Lyte assay relative to control.

In series [9] the target is Aurora kinase B (Homo sapiens) (UniProt Q96GD4). The series can be described thus: Inhibition of recombinant human His-tagged full length Aurora B expressed in baculovirus expression system using Ser/Thr 01 as substrate at 0.1 uM incubated for 60 mins by Z'-Lyte assay relative to control.
Aurora kinase B (Homo sapiens), sequence (Q96GD4 whole entry, the tested form may be a part): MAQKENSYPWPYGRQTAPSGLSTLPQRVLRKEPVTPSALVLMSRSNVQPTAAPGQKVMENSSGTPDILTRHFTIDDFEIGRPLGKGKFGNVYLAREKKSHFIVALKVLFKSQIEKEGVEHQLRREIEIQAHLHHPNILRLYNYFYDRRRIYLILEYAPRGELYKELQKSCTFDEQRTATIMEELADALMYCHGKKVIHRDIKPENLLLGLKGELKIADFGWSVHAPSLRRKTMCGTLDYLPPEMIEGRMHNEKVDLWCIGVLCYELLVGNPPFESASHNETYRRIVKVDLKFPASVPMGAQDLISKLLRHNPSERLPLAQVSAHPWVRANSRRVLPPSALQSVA
Series [10] concerns the target cAMP-dependent protein kinase catalytic subunit alpha (Homo sapiens) (UniProt P17612). The series can be described thus: Inhibition of recombinant human His-tagged PKA (1 to 351 residues) expressed in Escherichia coli expression system using Ser/Thr 01 as substrate at 0.1 uM incubated for 60 mins by Z'-lyte assay relative to control.
Series [11] in a line: Lipophilicity, logD of compound. Type of series: physicochemical. Conditions: octanol/water.

Mitogen-activated protein kinase 9 (Homo sapiens), sequence (P45984 whole entry, looked up): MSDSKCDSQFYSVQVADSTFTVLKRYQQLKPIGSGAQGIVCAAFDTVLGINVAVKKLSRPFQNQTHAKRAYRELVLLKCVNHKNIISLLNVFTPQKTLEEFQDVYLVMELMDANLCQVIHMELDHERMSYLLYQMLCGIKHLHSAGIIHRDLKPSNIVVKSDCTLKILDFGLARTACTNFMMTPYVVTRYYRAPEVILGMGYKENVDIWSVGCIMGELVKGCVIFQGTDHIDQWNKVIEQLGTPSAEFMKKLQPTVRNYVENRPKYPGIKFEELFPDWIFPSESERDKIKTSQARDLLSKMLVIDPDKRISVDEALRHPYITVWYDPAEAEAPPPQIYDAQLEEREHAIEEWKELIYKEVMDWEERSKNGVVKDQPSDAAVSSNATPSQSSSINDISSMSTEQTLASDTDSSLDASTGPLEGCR
Proto-oncogene tyrosine-protein kinase Src (Homo sapiens), sequence (P12931 2-536 limits assumed): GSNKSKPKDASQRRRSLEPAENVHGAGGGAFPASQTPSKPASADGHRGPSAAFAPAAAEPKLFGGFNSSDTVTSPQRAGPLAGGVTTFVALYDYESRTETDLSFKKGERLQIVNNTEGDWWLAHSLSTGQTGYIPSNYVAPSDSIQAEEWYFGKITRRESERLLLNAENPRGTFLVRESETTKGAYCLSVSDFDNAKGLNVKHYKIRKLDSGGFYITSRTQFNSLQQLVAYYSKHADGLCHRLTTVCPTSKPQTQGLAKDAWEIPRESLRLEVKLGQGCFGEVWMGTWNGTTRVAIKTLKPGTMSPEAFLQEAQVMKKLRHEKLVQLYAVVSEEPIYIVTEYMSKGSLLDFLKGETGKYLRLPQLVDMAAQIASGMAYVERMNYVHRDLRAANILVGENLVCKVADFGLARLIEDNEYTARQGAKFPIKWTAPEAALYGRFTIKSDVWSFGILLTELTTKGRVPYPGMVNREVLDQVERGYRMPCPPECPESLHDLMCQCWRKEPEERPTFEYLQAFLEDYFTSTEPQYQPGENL
Ephrin type-A receptor 4 (Homo sapiens), sequence (P54764 whole entry, the tested form may be a part): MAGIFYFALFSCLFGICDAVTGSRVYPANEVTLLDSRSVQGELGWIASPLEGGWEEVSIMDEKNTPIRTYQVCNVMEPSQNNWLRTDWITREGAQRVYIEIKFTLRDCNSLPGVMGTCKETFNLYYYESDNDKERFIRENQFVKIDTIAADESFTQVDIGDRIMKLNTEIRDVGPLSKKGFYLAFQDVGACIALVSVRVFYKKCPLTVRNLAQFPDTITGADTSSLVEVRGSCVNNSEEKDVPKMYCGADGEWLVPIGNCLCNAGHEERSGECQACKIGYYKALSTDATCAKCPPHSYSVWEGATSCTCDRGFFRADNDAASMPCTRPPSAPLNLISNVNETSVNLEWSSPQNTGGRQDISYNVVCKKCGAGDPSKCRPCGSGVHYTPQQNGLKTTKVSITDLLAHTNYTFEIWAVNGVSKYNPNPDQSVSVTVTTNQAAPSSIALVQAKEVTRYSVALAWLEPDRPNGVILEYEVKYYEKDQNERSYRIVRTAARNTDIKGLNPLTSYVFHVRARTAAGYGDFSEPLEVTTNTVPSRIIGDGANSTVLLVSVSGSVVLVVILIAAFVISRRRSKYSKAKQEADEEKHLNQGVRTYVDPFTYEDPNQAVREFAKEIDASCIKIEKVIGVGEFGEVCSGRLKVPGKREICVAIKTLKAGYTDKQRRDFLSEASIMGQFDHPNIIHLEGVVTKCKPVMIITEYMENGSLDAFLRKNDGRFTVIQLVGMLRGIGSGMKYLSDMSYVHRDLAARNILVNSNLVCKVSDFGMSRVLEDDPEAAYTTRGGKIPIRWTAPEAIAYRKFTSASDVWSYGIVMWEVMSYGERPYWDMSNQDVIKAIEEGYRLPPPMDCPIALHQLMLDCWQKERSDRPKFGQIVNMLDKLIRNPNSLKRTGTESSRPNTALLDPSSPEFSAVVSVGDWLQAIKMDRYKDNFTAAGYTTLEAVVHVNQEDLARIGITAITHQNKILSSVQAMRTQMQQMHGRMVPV

A word on the inhibition: it is the relative decrease from the control value, in per cent. What is called logD is lipophilicity at a set pH, counting ionised and neutral species. As for `O=C(Nc1c[nH]nc1-c1cc(Cl)ccc1OC(F)F)c1cnn2cccnc12`, the inhibition in [1] was 38%; in series [2] it was 100%; in series [3] it was -8%; in [4], -4%; in [5], 38%; in [6], -1%. Besides, the inhibition in [7] turned out to be 16%; in [8], 3%; in [9], 3%; in [10] it was 5%. The inhibition at 1 h, 0.1 µM at LRRK2 came out at 87%. In addition, the logD in [11] is 3.2.
Regarding `Cn1cc(NC(=O)c2cnn3cccnc23)c(-c2cc(Cl)ccc2OC(F)F)n1`, the inhibition in series [1] is 28%; in series [2], 98%; in [3] it was 0%; in series [4], 4%; in series [5] it was 14%; in series [6], 3%. Besides, the inhibition is -2% in series [7], 8% in series [8], 1% in series [9] and -4% in [10]. Further, the inhibition at 1 h, 0.1 µM on LRRK2 came out at 61%. This compound also returned a logD in [11] of 3.
On to `O=C(Nc1c[nH]nc1-c1cc2ccccc2cc1OC(F)F)c1cnn2cccnc12`, for which the inhibition is 35% in series [1]; 95% in [2]; 0% in series [3]; 3% in series [4]; 24% in series [5]; 1% in [6]. The inhibition came to 0% in series [7], 0% in series [8], 5% in series [9] and 5% in [10]. Also, at LRRK2, the inhibition at 1 h, 0.1 µM came to 31%. For the same compound, the logD in series [11] amounted to 3.5.

Source of the values: ChEMBL document CHEMBL4665643 (Bioorg Med Chem Lett, 2019).
